Legend:
[1] = target: T1, MMP-9 (catalytic domain, human, recombinant) (Homo sapiens, UniProt P14780); assay: MMP-9 inhibition assay of boronic ester proinhibitors (IC50; activation with H2O2); assay type: biochemical; settings: for inhibition of MMP-9 with no hydrogen peroxide present / inhibition at 10 µM: 10 μM; for inhibition at 10 µM: 1 h of activation, read-out: inhibition of MMP-9 after activation with 100 μM H2O2; for IC50: proinhibitors without H2O2, read-out: IC50 against MMP-9
T1 construct: MMP-9 (catalytic domain, human, recombinant); purchased BIOMOL International
Protocol: (§1) MMP-9 (catalytic domain, human, recombinant) and MMP-12 (catalytic domain, human, recombinant) were purchased from Enzo Life Sciences. The assays were carried out in 96-well plates using a Bio-Tek Flx 800 plate reader. IC50 values were obtained for proinhibitors B17 and B18 against MMP-9 and MMP-12. Serial dilutions of the compounds dissolved in DMSO were incubated at 37° C. for 30 minutes with 20 μL of the appropriate MMP (0.45 U/mL for MMP-9 and 0.35 U/mL for MMP-12) in MMP assay buffer (50 mM HEPES, 10 mM CaCl2, 0.10% Brij-35, pH 7.5), for a total volume of 99 pt. The reaction was initiated by the addition of 1 μL (400 μM) of the fluorescent substrate (Mca-Pro-Leu-Gly-Leu-Dpa-Ala-Arg-NH2 where Mca=(7-methoxycoumarin-4-yl)-acetyl and Dpa=N-3-(2,4-dinitrophenyl)-L-α-β-diaminopropionyl)) and kinetic activity was measured every minute for 20 min with excitation and emission wavelengths at 335 nm and 405 nm, respectively. Measurements were performed in duplicate. The percent inhibition was plotted versus the inhibitor concentration. A linear fit of the data for each experiment gives the IC50 value of the inhibitor where y=50%.
(§2) MMP activity in the presence of H2O2 was evaluated with both MMP-9 and MMP-12 with 1 h of activation at concentrations close to their IC50 values. Using the calculated rate constants for the protected ZBGs B19 and B20, it was determined that 1 h of activation time for each proinhibitor with 100 μM H2O2 will provide enough 1,2-HOPO-2 or PY-2 to inhibit the MMPs at 50%. For example, for proinhibitor B17 with MMP-9, if the rate=k[B17][H2O2] and k=3.9 M^−1s^−1, [B17]=10 μM, and [H2O2]=100 μM, the rate of conversion would be 3.9×10^−9 M/s. Therefore, activation for 1 h would release 14 μM 1,2-HOPO-2, or enough inhibitor to provide approximately 50% inhibition of MMP-9 (IC50 value for 1,2-HOPO-2 against MMP-9 is ˜6 μM).
(§3) In each well, 1 μL of proinhibitors B17 and B18 and the inhibitors 1,2-HOPO-2 and PY-2 in DMSO (1 mM for MMP-9 or 5 μM for MMP-12) were incubated for 1 h at 37° C. with 10 μL H2O2 (1 mM in HEPES buffer, pH 7.5) in MMP assay buffer for a total volume of 79 pt. […] After activation of the proinhibitors, 20 μL of the appropriate MMP (0.45 U/mL for MMP-9 and 0.35 U/mL for MMP-12) was added and incubated for an additional 30 min. The reaction was initiated by the addition of 1 pt (400 μM) of the fluorescent substrate and kinetic activity was measured every minute for 20 min with excitation and emission wavelengths at 335 nm and 405 nm, respectively. Enzyme activity with inhibitor was calculated with respect to the control experiment (no inhibitor present). Measurements were performed in duplicate in two independent experiments.

[2] = target: T2, MMP-12 (catalytic domain, human recombinant) (Homo sapiens, UniProt P39900); assay: MMP-12 inhibition assay of boronic ester proinhibitors (IC50; activation with H2O2); assay type: biochemical; design: MMP-12 (catalytic domain, human, recombinant); purchased Enzo Life Sciences; settings: for inhibition of MMP-12 with no hydrogen peroxide present / inhibition at 0.05 µM: 50 nM; for inhibition at 0.05 µM: 1 h of activation, read-out: inhibition of MMP-12 after activation with 100 μM H2O2; for IC50 against MMP-12: proinhibitors without H2O2
Protocol: as §1, §2, §3

[3] = Cleavage of sulfonate ester PZBGs and proMMPi by H2O2 (UV-Vis, rate constant, HPLC); assay type: physicochemical; settings: 50 μM in HEPES buffer, room temperature
Protocol: (§4) Absorption spectra of compounds were taken on a Perkin-Elmer Lambda 25 UV-Visible Spectrophotometer. To a 1.0 mL solution at 0.05 mM concentration of each compound in HEPES buffer (50 mM, pH 7.5) was added H2O2 (10 μL, 0.09M in HEPES) and absorption spectra were monitored over time at room temperature. Hydrolytic stability was measured by monitoring each sample in HEPES buffer over a 24 hour time period.
The pseudo-first order rate constant was calculated following literature procedure. To a 1.0 mL solution of compounds PZBG-1a, PZBG-1b, PZBG-1e, PZBG-5a, and PZBG-5b in HEPES buffer at 50 μM was added H2O2 to final concentrations of 150 μM, 250 μM, 500 μM, 750 μM, and 900 μM. Spectra were monitored over 15-30 min at room temperature with at least 50 spectra recorded at every concentration. The change in absorption at 298 nm for PZBG-1a and PZBG-1b were monitored, while the change in absorption at 288 nm was recorded for PZBG-1e, and 310 nm for PZBG-5a and PZBG-5b. The rate constant (kobs) was found from the linear slope of ln [(A−AZBG)/(Ao−AZBG)] vs. time where AZBG is the absorbance of a 50 μM sample of the ZBG or full-length inhibitor and AO is the initial absorbance of PZBG-1a, PZBG-1b, PZBG-1e, PZBG-5a, and PZBG-5b. The rate of conversion was determined from the slope of the line of kobs vs. [H2O2].
Analytical HPLC was performed on a HP Series 1050 system equipped with a Vydac® C18 reverse phase column (218 TP, 250×4.6 mm, 5 μm). […] Starting with 95% A and 5% B, an […] gradient was run for 15 min to a final solvent mixture of 5% A and 95% B, which was held for 5 min before ramping back down to 95% A and 5% B in 2 min and holding for an additional 4 min. Compounds ZBG-1a and PZBG-1a were prepared in HEPES buffer (50 mM, pH 7.5) at a concentration of 1 mM and retention times were determined. To evaluate cleavage by H2O2, a 1 mM solution of PZBG-1a in HEPES buffer was reacted with a 20-fold excess of H2O2 before analyzing under identical HPLC conditions as before.

[4] = Hydrolytic stability of sulfonate esters in HEPES buffer; assay type: physicochemical
Protocol: as §4

[5] = target: T2, MMP-12 (catalytic domain, human recombinant); assay: MMP-12 fluorescence-based inhibition assay with and without H2O2 (sulfonate ester proMMPi); assay type: biochemical; design: MMP-12 (catalytic domain, human recombinant); purchased Enzo Life Sciences; settings: 50 nM; for inhibition at 0.05 µM: 30 min of incubation
Protocol: MMP-12 (catalytic domain, human recombinant) was purchased from Enzo Life Sciences. The assays were carried out in a 96-well plate using a Bio-Tex Flx 800 plate reader. The activity of MMP-12 was evaluated after a 30 min incubation in the presence of H2O2 and proMMPi. The concentration of proMMPi used was selected to be close to the IC50 value of the parent full-length inhibitors, 1,2-HOPO-2 and PY-2[38]. In each well, 1 μL of proinhibitors PZBG-5a, PZGB-5b, and PZBG-6a and the inhibitors 1,2-HOPO-2 and PY-2 in DMSO (5 μM) were incubated for 30 min at 37° C. with 20 μL of MMP-12 (0.35 U/mL), 10 μL H2O2 (1 mM in HEPES buffer, pH 7.5), and MMP assay buffer (50 mM HEPES, 10 mM CaCl2, 0.10% Brij-35, pH 7.5) for a total volume of 99 μL. […] The reaction was initiated by the addition of 1 μL (400 μM) of the fluorescent substrate (Mca-Pro-Leu-Gly-Leu-Dpa-Ala-Arg-NH2 where Mca=(7-methoxycoumarin-4-yl)-acetyl and Dpa=N-3-(2,4-dinitrophenyl)-L-α-β-diaminopropionyl)) after the 30 minute incubation period and kinetic activity was measured every minute for 20 minutes with excitation and emission wavelengths at 335 nm and 405 nm, respectively. Enzyme activity with inhibitor was calculated with respect to the control experiment—no inhibitor present. Measurements were performed in duplicate in two independent experiments.

[6] = read-out: inhibition of MMP-12 after treatment with 100 μM H2O2
[7] = read-out: inhibition of MMP-12 before treatment with H2O2

T2 sequence (P39900 106-263 limits assumed): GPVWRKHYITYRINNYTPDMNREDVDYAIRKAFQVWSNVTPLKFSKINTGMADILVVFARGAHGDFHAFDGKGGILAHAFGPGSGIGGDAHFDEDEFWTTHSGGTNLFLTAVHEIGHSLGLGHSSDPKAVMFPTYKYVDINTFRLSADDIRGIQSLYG
T1 sequence (P14780 107-444 limits assumed): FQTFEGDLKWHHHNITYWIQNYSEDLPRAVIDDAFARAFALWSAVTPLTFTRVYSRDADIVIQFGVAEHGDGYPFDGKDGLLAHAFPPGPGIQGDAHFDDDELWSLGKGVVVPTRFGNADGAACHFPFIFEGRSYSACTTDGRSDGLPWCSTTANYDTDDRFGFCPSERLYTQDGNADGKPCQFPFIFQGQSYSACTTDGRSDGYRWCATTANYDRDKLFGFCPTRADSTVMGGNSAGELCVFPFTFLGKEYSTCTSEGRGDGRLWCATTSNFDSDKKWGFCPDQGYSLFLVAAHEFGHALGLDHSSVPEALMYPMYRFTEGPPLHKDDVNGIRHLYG

Structure (SMILES): CC1(C)OB(c2ccc(COn3c(C(=O)NCc4ccc(-c5ccccc5)cc4)cccc3=O)cc2)OC1(C)C [Compound B17, N-([1,1′-biphenyl]-4-ylmethyl)-6-oxo-1-((4-(4,4,5,5-tetramethyl-1,3,2-dioxaborolan-2-yl)benzyl)oxy)-1,6-dihydropyridine-2-carboxamide]
- inhibition of MMP-9 with no hydrogen peroxide present [1]: little inhibition
- inhibition at 10 µM [1]: 50%
- IC50 [1]: > 1000 µM
- inhibition of MMP-12 with no hydrogen peroxide present [2]: little inhibition
- inhibition at 0.05 µM [2]: 50%
- IC50 against MMP-12 [2]: micromolar range

Structure (SMILES): O=C(NCc1ccc(-c2ccccc2)cc1)c1cccc(=O)n1OS(=O)(=O)c1ccccc1 [PZBG-5a, 6-(([1,1′-Biphenyl]-4-ylmethyl)carbamoyl)-2-Oxopyridin-1(2H)-yl benzenesulfonate]
- pseudo-first order rate constant with an excess of H2O2 (full-length proMMPi) [3]: 0.3 M⁻¹ s⁻¹
- hydrolysis in buffer alone ([4]; after 9 h): ~50%
- inhibition at 0.05 µM [5, 6]: ~30%
- inhibition at 0.05 µM [5, 7]: ~20%

Structure (SMILES): O=C(O)c1ccc(S(=O)(=O)On2c(C(=O)NCc3ccc(-c4ccccc4)cc3)cccc2=O)cc1 [PZBG-5b, 4-(((6-(([1,1′-Biphenyl]-4-ylmethyl)carbamoyl)-2-Oxopyridin-1(2H)yl)oxy)sulfonyl)benzoic acid]
- pseudo-first order rate constant with an excess of H2O2 (full-length proMMPi) [3]: 1.1 M⁻¹ s⁻¹
- hydrolysis in buffer alone ([4]; after 3 h): ~50%
- inhibition at 0.05 µM [5, 6]: ~50%
- inhibition at 0.05 µM [5, 7]: ~30%

Structure (SMILES): Cc1ccc(S(=O)(=O)On2ccccc2=O)cc1 [PZBG-1b, 2-Oxopyridin-1(2H)-yl-4-methylbenzenesulfonate]
- pseudo-first order rate constant with an excess of H2O2 [3]: 0.3 M⁻¹ s⁻¹
- cleavage in buffer ([4]; in 24 h): ~30%

Structure (SMILES): CC1(C)OB(c2ccc(COc3c(C(=O)NCc4ccc(-c5ccccc5)cc4)occc3=O)cc2)OC1(C)C [Compound B18, N-([1,1′-biphenyl]-4-ylmethyl)-4-oxo-3-((4-(4,4,5,5-tetramethyl-1,3,2-dioxaborolan-2-yl)benzyl)oxy)-4H-pyran-2-carboxamide]
- inhibition of MMP-9 with no hydrogen peroxide present [1]: little inhibition
- inhibition at 10 µM [1]: 50%
- IC50 [1]: > 1000 µM
- inhibition of MMP-12 with no hydrogen peroxide present [2]: little inhibition
- inhibition at 0.05 µM [2]: 50%
- IC50 against MMP-12 [2]: micromolar range

Structure (SMILES): O=C(NCc1ccc(-c2ccccc2)cc1)c1occc(=O)c1OS(=O)(=O)c1ccccc1 [PZBG-6a, 2-(([1,1′-Biphenyl]-4-ylmethyl)carbamoyl)-4-oxo-4H-pyran-3-yl benzenesulfonate]
- change in inhibitory activity against MMP-12 upon exposure to H2O2 ([5]; negative control): no significant change in inhibitory activity

Structure (SMILES): O=c1ccccn1OS(=O)(=O)c1ccccc1 [PZBG-1a, 2-Oxopyridin-1(2H)-yl benzenesulfonate]
- pseudo-first order rate constant with an excess of H2O2 [3]: 0.7 M⁻¹ s⁻¹
- cleavage in buffer ([4]; in 6 h): ~50%

Reference: US8889638B2, “Stimulus-triggered prodrugs” (The Regents of the University of California, priority 2010, dated 2014)
